Experimental data as given in patent publication US20250346588A1, “IMIDAZOPYRIDINE AND OXAZOLOPYRIDINE DERIVATIVES AND ANALOGS THEREOF, METHODS OF PREPARATION THEREOF, METHODS OF HIF-1/2A PATHWAY INHIBITION, AND INDUCTION OF FERROPTOSIS” (KUDA THERAPEUTICS, INC., priority 2022, published 2025).
Where two headings read alike, the source gives them in different places.

How the values were obtained:
[1] = tested on: HIF-2α transcriptional activity; test: Hypoxia-responsive element-driven luciferase (HRE-Luc) screen; type: cell-based, human; conditions: 786-0 ccRCC cells stably expressing HRE-Luc, 24 h treatment, range of IC50 values
Method: (§1) Screens for inhibitory activity of compounds described herein were performed using 786-0 ccRCC cells that stably express HRE-Luc: 5 copies of the hypoxia-responsive element (HRE) fused to the pGL3 luciferase reporter (Promega Corp, Madison WI). 786-0 cells are pVHL deficient and thus constitutively express HIF-2α independently of cellular oxygen tension. Since 786-0 cells lack HIF-1α, HRE-driven luciferase activity is primarily HIF-2α driven, and has been previously validated. Cells were maintained at log phase growth in […] (DMEM) with 10% FBS in a humidified incubator at 37° C. with 5% CO2. For screening assays, cells were seeded at a density of 4,000 cells in 50 μl of complete media/well in quadruplicate wells/point in a 96-well plate. After 24 h, 50 μl of a 2× concentration of test compound was added to each well. Compounds were diluted from a 5-10 mM stock in DMSO and final concentrations of DMSO in each well in controls and treated wells were kept constant at ≤0.6% DMSO. After 24 h treatment, luciferase activity was measured using the Steady-Glo Luciferase assay system (Promega Corp) according to the manufacturer's protocol. Cell viability was measured in quadruplicate parallel wells using resazurin as recommended by the manufacturer (R&D systems, Minneapolis, MN). Data for luciferase and resazurin were normalized to DMSO treated controls (defining 100%) and wells containing assay reagent but no cells (defining 0%) and graphed using the log inhibitor versus normalized response option in Graphpad Prism 9.3.1 software. Representative data determined using Steady-Glo luciferase and resazurin are shown in FIGS. 1A and 1B respectively, with error bars showing SD. Filled diamonds, empty squares and empty triangles indicate treatment with 3, 8 and 22 respectively with results for HRE-Luc shown in FIG. 1A.

HIF-1α and HIF-2α = test: Western blots for HIF-1α and HIF-2α in ccRCC cells; type: cell-based, human; conditions: 786-0 or RCC10 ccRCC cells, 24h, relative to GAPDH
Method: (§2) Western blots were performed to determine the effects of the compounds on levels of HIF-2α and other relevant proteins, whereas qPCR was performed to determine the effects of compounds on transcript levels of HIF target genes. 786-0 or RCC10 cells were plated at 1×10E5 cells/well in 2 ml DMEM with 10% FBS/well in 6-well tissue culture plates. Cells were allowed to adhere overnight in a humidified incubator at 37° C. with 5% CO2, after which the appropriate concentrations of compounds in DMSO were added. DMSO concentrations were kept constant in all wells. After 24 h exposure to the compounds, cells were lysed and subjected to western blotting according to standard protocols. Antibodies for HIF-1α and HIF-2α and GAPDH were purchased from Cell Signaling Technology (Danvers, MA), whereas antibodies to IRP2 and pVHL were from Santa Cruz Biotechnology (Dallas, TX), and GPX4 antibody was from R&D Systems, Inc (Minneapolis, MN). Representative data in FIG. 2 show a dose-dependent effect of compounds in decreasing HIF-1/2α. Compounds also impact cellular iron sensing given by increased IRP2, which taken together indicate that cells sense decreased amounts of available iron, which triggers the iron starvation response initiated by IRP2 stabilization. Representative data shown in FIG. 3D show a dose dependent effect of the compounds on GPX4, which may indicate decreased resistance to ferroptosis. […] The data also show increased expression of ISCA2 with pVHL re-expression.

IRP2 and GPX4 = test: Western blots for cellular iron-sensing machinery (IRP2, GPX4); type: cell-based, human; conditions: 786-0 or RCC10 ccRCC cells, 24h, relative to GAPDH
Method: as §2

ISCA2 = biological target: T1, ISCA2 (Homo sapiens, UniProt Q86U28); test: Thermal shift assay with recombinant ISCA2 (SYPRO Orange); type: binding
T1 construct: His6 (N); made in house; host or cells: E. coli Rosetta (DE3)
T1 sequence (Q86U28 9-154): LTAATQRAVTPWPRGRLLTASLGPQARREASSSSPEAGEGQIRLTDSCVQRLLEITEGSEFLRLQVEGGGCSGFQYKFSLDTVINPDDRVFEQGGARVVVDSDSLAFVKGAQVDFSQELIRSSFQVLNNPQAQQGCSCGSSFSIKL
Method: Thermal shift assays were performed by monitoring the change in protein melting temperature (Tm) in the absence or presence of test compounds, using the hydrophobic protein binding dye, SYPRO Orange (S6650, Thermo Fisher Scientific), measured using the LightCycler 480 (Roche Life Sciences, Indianapolis, IN) according to the manufacturer's protocol. Recombinant ISCA2 was produced by expressing amino acid residues 9-154 of ISCA2 (ISCA2 lacking its mitochondrial localization sequence) in the pET28 vector containing an N-terminal His6 tag in Rosetta (DE3) competent cells (Novagen, Millipore Sigma). ISCA2 production was induced by treating ISCA2 transformed log phase cells with 0.25 mM IPTG for 4 hours at 18° C. ISCA2 was purified using Ni^2+ affinity purification according to standard protocols and eluted in 50 mM Tris-C1 pH7.4, 150 mM NaCl, 5 mM DTT. Thermal shift assays were performed in 384-well plates using 1 μl of a 10× concentration of SYPRO Orange, 8 μl of ISCA2 (4 μg protein) and 1 μl of 1-2 mM stock of test compound per well. The LightCycler was used according to the following setup: LightCycler 480 Instrument Temperature Setup: First target of 20° C., with a Hold of 15 seconds; second target of 95° C., with Acquisition Mode of Continuous, and 10 acquisitions per degree c.; and third target of 20° C., with a Hold of 15 seconds. Tms were determined using Roche Protein Melting Analysis Software. Representative data are shown in FIGS. 6 and 7 using compound 1 and 26HCL at 200 and 100 µM final concentration respectively. […] These findings are supported by studies showing that re-expression of VHL (which increases ISCA2) and overexpression of ISCA2 itself, promotes the resistance of cells to the compounds (shown in FIG. 8).

786-0 cells = test: Resazurin cell viability assay, with or without DFO and other inhibitors; type: cell-based, human; conditions: for IC50: Homo sapiens, 24 h, resazurin
Method: as §1
In view of the increased cellular iron concentrations induced by the compounds described herein, the involvement of iron in mediating cell death was determined. Cell viability assays were performed as described in Example 2 using resazurin as a cell viability readout and performed in the absence or presence of 100 μM of the iron chelator, DFO (D9533, MilliporeSigma, St Louis, MO). […] Viability IC50 values are shown in brackets.

786-0 ccRCC cells = test: ICP-MS of cellular iron, zinc and copper; type: cell-based, human; conditions: 786-0 cells, 24h
Method: These studies were performed to determine the content of iron and other transition metals in cells after exposure the compounds described herein. 786-0 cells were seeded at 1.5 million cells/flask in T75 cm^2 flasks in DMEM+10% FBS, and allowed to adhere overnight. Cells were then treated with indicated concentrations of compounds in DMSO or DMSO alone (vehicle) for a further 24 h, after which cells were detached by trypsinization, counted, washed twice in phosphate-buffered saline (PBS) and pelleted. Experiments were performed using three replicate T75 cm^2 flasks per condition. A 5:1 mixture of nitric acid (OPTIMA Grade, 70%, Fisher Scientific) and ultrapure hydrogen peroxide (ULTREX II, 30%, Fisher Scientific) was added to cell pellets. This mixture was allowed to digest overnight, heated until dry, and resuspended in 2% nitric acid for analysis using an Agilent 7900 ICP-MS (Agilent Technologies, Santa Clara, CA). Calibration standard solutions for determination of Fe were prepared from Agilent multi-element calibration standard-2A. An Agilent Environmental Calibration Standard was used as an independent control. PBS-only control digestions were used to measure background. Metal readings were normalized to cell number. Data obtained from these studies for three replicate readings (with SEM) are shown in FIG. 3, which show an increase in cellular iron (Fe) content after treatment with indicated compounds.

| IC50 ([1]; Homo sapiens, 786-0, 24 h) [µM] | SMILES | effect on HIF-1α and HIF-2α protein (Western blot) (HIF-1α and HIF-2α) | effect on IRP2 protein (Western blot) (IRP2 and GPX4) | cellular iron (Fe), zinc (Zn) and copper (Cu) content (786-0 ccRCC cells) | other results |
| --- | --- | --- | --- | --- | --- |
| < 10 | COc1cccc2sc(Nc3nnc(-c4ccc(F)cc4)o3)nc12 [Compound 1, 5-(4-fluorophenyl)-N-(4-methoxybenzo[d]thiazol-2-yl)-1,3,4-oxadiazol-2-amine] | decreases HIF-1α and HIF-2α | increases IRP2 | – | Tm of ISCA2 in compound-treated wells (ISCA2; 200 μM compound, control wells 53.21±0.36): 55.63±0.26 °C; change in melting temperature of ISCA2 (in words) (ISCA2; compound 1 and 26HCL at 200 and 100 μM final concentration respectively): significant change in melting temperature of ISCA2 |
| < 10 | COc1nccc2[nH]c(Nc3nnc(-c4ccc(F)cc4)o3)nc12 [Compound 3, 5-(4-Fluorophenyl)-N-(4-methoxy-1H-imidazo[4,5-c]pyridin-2-yl)-1,3,4-oxadiazol-2-amine] | decreases HIF-1α and HIF-2α | increases IRP2 | increases the content of iron, zinc and copper in cells | effect of DFO co-treatment on compound-mediated loss of cell viability (786-0 cells; DFO 100 μM, FIG. 4B): protective effects of DFO |
| < 10 | COc1ccc(-c2nnc(Nc3nc4c(OC)nccc4[nH]3)o2)cc1 [Compound 22, N-(4-methoxy-1H-imidazo[4,5-c]73yridine-2-yl)-5-(4-methoxyphenyl)-1,3,4-oxadiazol-2-amine] | – | – | increases the content of iron, zinc and copper in cells | IC50 (786-0 cells; compound alone, read-out: cell viability IC50): 11.4 µM; IC50 (786-0 cells; with DFO 100 μM, read-out: cell viability IC50 in the presence of DFO): 83.6 µM |
| – | COc1nc(C)cc2[nH]c(Nc3nnc([C@H]4CC[C@H](OC)CC4)o3)nc12 [Compound 99, N-(4-methoxy-6-methyl-1H-imidazo[4,5-c]pyridin-2-yl)-5-((1r,4r)-4-methoxycyclohexyl)-1,3,4-oxadiazol-2-amine] | – | – | – | IC50 [1]: < 10 µM |
| < 10 | COc1nc(C)cc2[nH]c(Nc3nnc([C@H]4CC[C@@H](OC)CC4)o3)nc12 [Compound 100, N-(4-methoxy-6-methyl-1H-imidazo[4,5-c]pyridin-2-yl)-5-((1s,4s)-4-methoxycyclohexyl)-1,3,4-oxadiazol-2-amine] | – | – | – | – |
